From PubChem BioAssay (NCI)
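Values below derive from 48-hour exposures of cells grown in 96-well plates, with endpoints linearly interpolated between the two concentrations bracketing the appropriate inhibition level. TGI denotes the concentration required for complete inhibition of growth.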

How the values were obtained:
Test in all cases: NCI-60 cell line screen, 48 h
[1] = test system: 786-0 renal
[2] = test system: A498 renal
[3] = test system: A549 NSCLC
[4] = test system: ACHN renal
[5] = test system: BT-549 breast
[6] = test system: CAKI-1 renal
[7] = test system: CCRF-CEM leukemia
[8] = test system: COLO 205 colon
[9] = test system: DU-145 prostate
[10] = test system: EKVX NSCLC
[11] = test system: HCC-2998 colon
[12] = test system: HCT-116 colon
[13] = test system: HCT-15 colon
[14] = test system: HL-60(TB) leukemia
[15] = test system: HOP-62 NSCLC
[16] = test system: HOP-92 NSCLC
[17] = test system: HS 578T breast
[18] = test system: HT29 colon
[19] = test system: IGROV1 ovarian
[20] = test system: K-562 leukemia
[21] = test system: KM12 colon
[22] = test system: LOX IMVI melanoma
[23] = test system: M14 melanoma
[24] = test system: MALME-3M melanoma
[25] = test system: MCF7 breast
[26] = test system: MDA-MB-231 breast
[27] = test system: MDA-MB-435
[28] = test system: MOLT-4 leukemia
[29] = test system: NCI-H226 lung
[30] = test system: NCI-H23 lung
[31] = test system: NCI-H460 lung
[32] = test system: NCI-H522 lung
[33] = test system: NCI/ADR-RES ovarian
[34] = test system: OVCAR-3 ovarian
[35] = test system: OVCAR-4 ovarian
[36] = test system: OVCAR-5 ovarian
[37] = test system: OVCAR-8 ovarian
[38] = test system: PC-3 prostate
[39] = test system: RPMI-8226 leukemia
[40] = test system: RXF 393 renal
[41] = test system: SF-268 CNS
[42] = test system: SF-295 CNS
[43] = test system: SF-539 CNS
[44] = test system: SK-MEL-2 melanoma
[45] = test system: SK-MEL-28 melanoma
[46] = test system: SK-MEL-5 melanoma
[47] = test system: SK-OV-3 ovarian
[48] = test system: SN12C renal
[49] = test system: SNB-19 CNS
[50] = test system: SNB-75 CNS
[51] = test system: SR leukemia
[52] = test system: SW-620 colon
[53] = test system: T-47D breast
[54] = test system: TK-10 renal
[55] = test system: U251 CNS
[56] = test system: UACC-257 melanoma
[57] = test system: UACC-62 melanoma
[58] = test system: UO-31 renal
[59] = test system: MDA-N

Measured: TGI

C[C@H]1CC(=O)C[C@@H]2CC[C@@H]3[C@H](CC[C@]4(C)C(OC(=O)c5cccc6c(=O)c7ccccc7[nH]c56)CC[C@@H]34)[C@]21C (stereo not given in full)
86 µM: [6]
61 µM: [33]
40.3 µM: [46]
75.9 µM: [37]
95.1 µM: [58]
73.2 µM: [7]
72.8 µM: [32]
36.5 µM: [14]
88.3 µM: [57]
55.6 µM: [39]
21.6 µM: [51]
30.2 µM: [28]
70.8 µM: [16]
62.9 µM: [8]
92.8 µM: [50]
not listed: [59]
> 100 µM: all other assays above

O=C1/C(=C/c2ccc(Cl)cc2)NC(=S)N1CN1CCCCC1
68.7 µM: [49]
76.5 µM: [39]
29.3 µM: [18]
62 µM: [17]
64.1 µM: [8]
78.2 µM: [7]
54.4 µM: [57]
58.2 µM: [13]
88.7 µM: [24]
82.1 µM: [25]
49.3 µM: [32]
78.8 µM: [41]
72 µM: [33]
45.3 µM: [52]
97.4 µM: [46]
not listed: [5] | [6] | [11] | [14] | [31] | [35] | [40] | [43] | [53] | [56]
> 100 µM: all other assays above

O=C(O)CN1CCN2CCOCCN(CC1)CCN(CC(=O)O)CC2
not listed: [59]
> 100 µM: all other assays above
